IC50 data for 20 compounds are collected here from US12297203B2, “Pyrrolopyrimidine ITK inhibitors” (ACLARIS THERAPEUTICS, INC., priority 2018, dated 2025).

Molecules are shown by their SMILES. Where two headings read alike, the source gives them in different places.

One experiment addresses ITK (Homo sapiens (Human), UniProt Q08881). Nature of the experiment: ITK inhibitor binding potency (LanthaScreen competitive binding assay). The note with it: read-out: ITK Inh. IC50. In a few lines:
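TR-FRET tracer displacement: 10 nM GST-ITK, 2 nM Eu-anti-GST, 50 nM tracer-236 in HEPES pH 7.5, MgCl2, 2% DMSO; 11 points, 20 µM–0.34 nM. Run with or without 2 h compound–ITK preincubation before tracer; IC50 by 4-parameter fit of emission ratio.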
A general note: TR-FRET usually uses a lanthanide donor and a delayed reading to cut background.

Another experiment has as its target JAK3 (Homo sapiens (Human), UniProt P52333). In words: JAK3 enzyme activity assay (Caliper mobility shift). In kind it is biochemical. The note with it: ATP at Km level; read-out: JAK3 Inh. IC50. In a few lines:
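Caliper mobility-shift assay with 2.5 nM JAK3, […] and […] (Km level) in 20 mM HEPES pH 7.5, 10 mM MgCl2, 0.01% BSA, 0.0005% Tween-20, 2% DMSO. 11-point dose-response from […] 0.34 nM; IC50 by 4-parameter logistic fit of product/substrate signal.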

Experiment [1] relates to ITK phosphorylation of its substrate, PLCγ1, at Y783. Nature of the experiment: ITK target modulation assay (PLCγ1 Y783 phosphorylation, anti-CD3 stimulated Jurkat T cells). In kind it is cell-based. The note with it: anti-CD3 Dynabeads stimulation, read-out: PLC-γ Inh. IC50. In a few lines: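 Jurkat cells (400,000/well) were preincubated with compound for 1 h at 37 °C (0.1% DMSO final), then stimulated with anti-CD3 Dynabeads (bead:cell 2:1). Hypotonic lysates were dot-blotted and probed for phospho-PLCγ1 Y783 and total PLCγ1, with quantification by dual-channel infrared imaging.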

Experiment [2] has as its system JAK1/3 phosphorylation of its substrate, STAT5, at Y694. Nature of the experiment: JAK1/3 target modulation assay (IL-2 stimulated STAT5 Y694 phosphorylation in PBMC). In kind it is cell-based. The note with it: Primary human peripheral blood mononuclear cells, IL-2 25 ng/mL, read-out: IL2-STAT5 Inh. IC50. In a few lines: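 Human PBMCs preincubated with compound for 1 h at 37 °C, then stimulated with IL-2 (25 ng/mL final) for 5 min. Cells were lysed and phospho-STAT5a,b (Y694) measured by MSD electrochemiluminescence immunoassay, single-plex or multiplex with total STAT5a,b.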

Sequence of ITK (Q08881 whole entry): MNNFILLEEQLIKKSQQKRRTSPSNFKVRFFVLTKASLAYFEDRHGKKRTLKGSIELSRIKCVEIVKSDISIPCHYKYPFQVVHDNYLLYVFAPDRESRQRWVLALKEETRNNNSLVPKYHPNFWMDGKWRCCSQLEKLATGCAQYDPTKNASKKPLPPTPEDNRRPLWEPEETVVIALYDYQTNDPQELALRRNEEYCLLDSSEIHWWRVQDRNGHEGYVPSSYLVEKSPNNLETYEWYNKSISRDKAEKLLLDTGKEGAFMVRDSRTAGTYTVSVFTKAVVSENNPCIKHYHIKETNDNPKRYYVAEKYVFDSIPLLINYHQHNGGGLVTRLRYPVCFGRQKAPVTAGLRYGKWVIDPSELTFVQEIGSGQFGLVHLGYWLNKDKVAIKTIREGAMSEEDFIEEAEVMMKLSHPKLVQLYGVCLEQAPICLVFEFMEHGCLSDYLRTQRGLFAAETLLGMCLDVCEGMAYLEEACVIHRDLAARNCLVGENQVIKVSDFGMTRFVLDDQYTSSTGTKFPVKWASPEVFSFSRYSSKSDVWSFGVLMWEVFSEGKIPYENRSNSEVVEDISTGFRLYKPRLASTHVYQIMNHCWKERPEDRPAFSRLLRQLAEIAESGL
Sequence of JAK3 (P52333 781-1124): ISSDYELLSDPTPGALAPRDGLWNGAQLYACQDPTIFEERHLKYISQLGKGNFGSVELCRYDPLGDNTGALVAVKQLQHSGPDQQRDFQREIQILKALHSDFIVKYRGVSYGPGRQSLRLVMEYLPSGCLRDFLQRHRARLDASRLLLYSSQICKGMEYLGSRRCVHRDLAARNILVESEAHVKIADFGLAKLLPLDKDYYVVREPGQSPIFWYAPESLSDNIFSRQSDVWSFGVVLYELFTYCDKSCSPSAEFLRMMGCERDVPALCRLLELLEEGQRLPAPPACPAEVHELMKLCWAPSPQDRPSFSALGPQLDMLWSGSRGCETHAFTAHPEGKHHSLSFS

`C=CC(=O)N1CCC[C@@H](Nc2ccnc3[nH]cc(C(=O)CCOC)c23)C1` [Example 8, (R)-1-(3-((3-(3-methoxypropanoyl)-1H-pyrrolo[2,3-b]pyridin-4-yl)amino)piperidin-1-yl)prop-2-en-1-one]: the IC50 (as a rule, the midpoint of a concentration-inhibition curve) is 10 to 100 nM on ITK; 10 to 100 nM on JAK3; above 1000 nM in experiment [1] (Homo sapiens, Jurkat); above 1000 nM in experiment [2] (Homo sapiens, PBMC).
For `C=CC(=O)N1C[C@H](Nc2ncnc3[nH]cc(C(=O)C4CC4)c23)CC[C@@H]1C` [Example 32, 1-((2S,5R)-5-((5-(cyclopropanecarbonyl)-7H-pyrrolo[2,3-d]pyrimidin-4-yl)amino)-2-methylpiperidin-1-yl)prop-2-en-1-one], the 50% inhibitory concentration (IC50) is at most 10 nM at ITK; at most 10 nM at JAK3; 100 to 1000 nM in experiment [1] (Homo sapiens, Jurkat); 100 to 1000 nM in experiment [2] (Homo sapiens, PBMC).
Take `C=CC(=O)N1CCC[C@@H](Nc2ncnc3[nH]cc([C@H]4C[C@@H]4COC)c23)C1` (single isomer, unassigned) [Example 26]: the half-maximal inhibitory concentration (IC50) was at most 10 nM at ITK, at most 10 nM at JAK3, at most 100 nM in experiment [1] (Human Jurkat T cells) and 100 to 1000 nM in experiment [2].
Consider `C=CC(=O)N1CCC[C@@H](Nc2ncnc3[nH]cc(CC4CCCC4)c23)C1` [Example 22, (R)-1-(3-((5-(cyclopentylmethyl)-7H-pyrrolo[2,3-d]pyrimidin-4-yl)amino)piperidin-1-yl)prop-2-en-1-one], for which the IC50 is at most 10 nM at ITK; at most 10 nM at JAK3; 100 to 1000 nM in experiment [1] (Homo sapiens, Jurkat); 100 to 1000 nM in experiment [2] (Homo sapiens, PBMC).
Turning to `C=CC(=O)N1C[C@H](Nc2ncnc3[nH]cc([C@@H]4C(C)(C)C4(F)F)c23)CC[C@@H]1C` (single isomer, unassigned) [Example 54], the IC50 at ITK is at most 10 nM; on JAK3, at most 10 nM; in experiment [1] (Homo sapiens, Jurkat), 100 to 1000 nM; in experiment [2] (Homo sapiens, PBMC), 100 to 1000 nM.
For the compound `C=CC(=O)N1C[C@@H](Nc2ncnc3[nH]cc([C@@H]4CC4(F)F)c23)CC[C@H]1C(C)C` (single isomer, unassigned) [Example 66], the IC50 on ITK was 10 to 100 nM; at JAK3, 10 to 100 nM; in experiment [1] (Homo sapiens, Jurkat) it was 100 to 1000 nM; in experiment [2] (Homo sapiens, PBMC) it was above 1000 nM.
Consider `C=CC(=O)N1CCC(Nc2cnc3[nH]cc(C(=O)OCC)c3n2)CC1` [Example 97, ethyl 2-((1-acryloylpiperidin-4-yl)amino)-5H-pyrrolo[2,3-b]pyrazine-7-carboxylate], for which the IC50 at ITK was above 100 nM; at JAK3, at most 10 nM; in experiment [1] (Homo sapiens, Jurkat) it was above 1000 nM; in experiment [2] (Homo sapiens, PBMC), 100 to 1000 nM.
For `C=CC(=O)N1CCC[C@@H](Nc2ncnc3[nH]cc(CC4CCC4)c23)C1` [Example 20, (R)-1-(3-((5-(cyclobutylmethyl)-7H-pyrrolo[2,3-d]pyrimidin-4-yl)amino)piperidin-1-yl)prop-2-en-1-one], the IC50 is at most 10 nM at ITK; at most 10 nM on JAK3; 100 to 1000 nM in experiment [1] (Homo sapiens, Jurkat); 100 to 1000 nM in experiment [2] (Homo sapiens, PBMC).
As to `C=CC(=O)N1C[C@H](Nc2ncnc3[nH]cc(C(=O)OC(C)C)c23)CC[C@@H]1C` [Example 4, isopropyl 4-(((3R,6S)-1-acryloyl-6-methylpiperidin-3-yl)amino)-7H-pyrrolo[2,3-d]pyrimidine-5-carboxylate], the IC50 was at most 10 nM at ITK; at most 10 nM on JAK3; 100 to 1000 nM in experiment [1] (Homo sapiens, Jurkat); 100 to 1000 nM in experiment [2] (Homo sapiens, PBMC).
Turning to `C=CC(=O)N1CC(Nc2ncnc3[nH]cc(C(=O)C4CC4)c23)C1` [Example 7, 1-(3-((5-(cyclopropanecarbonyl)-7H-pyrrolo[2,3-d]pyrimidin-4-yl)amino)azetidin-1-yl)prop-2-en-1-one], the IC50 is 10 to 100 nM at ITK; above 100 nM on JAK3; above 1000 nM in experiment [1] (Homo sapiens, Jurkat); above 1000 nM in experiment [2] (Homo sapiens, PBMC).
Turning to `C=CC(=O)N1C[C@H](Nc2ncnc3[nH]cc([C@@H]4CC4(F)F)c23)CC[C@@H]1C` (single isomer, unassigned) [Example 48], the IC50 was at most 10 nM at ITK; at most 10 nM at JAK3; at most 100 nM in experiment [1] (Homo sapiens, Jurkat); at most 100 nM in experiment [2] (Homo sapiens, PBMC).
For `C=CC(=O)N1CCC[C@@H](Nc2ncnc3[nH]cc(C4(C)CC4)c23)C1` [Example 23, (R)-1-(3-((5-(1-methylcyclopropyl)-7H-pyrrolo[2,3-d]pyrimidin-4-yl)amino)piperidin-1-yl)prop-2-en-1-one], the IC50 on ITK is at most 10 nM; on JAK3 it was at most 10 nM; in experiment [1] (Homo sapiens, Jurkat), 100 to 1000 nM; in experiment [2] (Homo sapiens, PBMC) it was 100 to 1000 nM.
Regarding `C=CC(=O)N1C[C@H](Nc2ncnc3[nH]cc([C@@H]4CC4(F)F)c23)CC[C@@H]1C(C)C` (single isomer, unassigned) [Example 64], the IC50 on ITK is above 100 nM; on JAK3 it was above 100 nM; in experiment [1] (Homo sapiens, Jurkat), above 1000 nM; in experiment [2] (Homo sapiens, PBMC), above 1000 nM.
Consider `C=CC(=O)N1C[C@H](Nc2ccnc3[nH]cc([C@H]4CC4(F)F)c23)CC[C@@H]1C` (single isomer, unassigned) [Example 73], for which the IC50 at ITK is at most 10 nM; at JAK3, at most 10 nM; in experiment [1] (Homo sapiens, Jurkat), at most 100 nM; in experiment [2] (Homo sapiens, PBMC), at most 100 nM.
As for `C=CC(=O)N1CCC[C@@H](Nc2ccnc3[nH]cc(C(=O)C4CCCC4)c23)C1` [Example 13, (R)-1-(3-((3-(cyclopentanecarbonyl)-1H-pyrrolo[2,3-b]pyridin-4-yl)amino)piperidin-1-yl)prop-2-en-1-one], the IC50 is at most 10 nM at ITK; 10 to 100 nM at JAK3; 100 to 1000 nM in experiment [1] (Homo sapiens, Jurkat); 100 to 1000 nM in experiment [2] (Homo sapiens, PBMC).
`C=CC(=O)N1CCC[C@@H](Nc2ncnc3[nH]cc(C(C)C4CC4)c23)C1` (stereo partly drawn) [Example 21, 1-((3R)-3-((5-(1-cyclopropylethyl)-7H-pyrrolo[2,3-d]pyrimidin-4-yl)amino)piperidin-1-yl)prop-2-en-1-one]: the IC50 at ITK was above 100 nM; at JAK3, above 100 nM; in experiment [1] (Homo sapiens, Jurkat), above 1000 nM; in experiment [2] (Homo sapiens, PBMC), above 1000 nM.
Turning to `C=CC(=O)N1CCC[C@@H](Nc2ncnc3[nH]cc(C4=CCCC4)c23)C1` [Example 29, (R)-1-(3-((5-(cyclopent-1-en-1-yl)-7H-pyrrolo[2,3-d]pyrimidin-4-yl)amino)piperidin-1-yl)prop-2-en-1-one], the IC50 at ITK is at most 10 nM; on JAK3 it was at most 10 nM; in experiment [1] (Homo sapiens, Jurkat) it was 100 to 1000 nM; in experiment [2] (Homo sapiens, PBMC), 100 to 1000 nM.
As to `C=CC(=O)N1C[C@H](Nc2ccnc3[nH]cc(CC4CC4)c23)CC[C@@H]1C` [Example 35, 1-((2S,5R)-5-((3-(cyclopropylmethyl)-1H-pyrrolo[2,3-b]pyridin-4-yl)amino)-2-methylpiperidin-1-yl)prop-2-en-1-one], the IC50 on ITK is at most 10 nM; at JAK3, at most 10 nM; in experiment [1] (Homo sapiens, Jurkat), 100 to 1000 nM; in experiment [2] (Homo sapiens, PBMC), 100 to 1000 nM.
For the compound `C=CC(=O)N1C[C@H](Nc2ncnc3[nH]cc([C@@H]4C[C@H]4COC)c23)CC[C@@H]1C` (single isomer, unassigned) [Example 45], the IC50 on ITK was at most 10 nM; on JAK3, at most 10 nM; in experiment [1] (Homo sapiens, Jurkat) it was at most 100 nM; in experiment [2] (Homo sapiens, PBMC), at most 100 nM.
On to `C=CC(=O)N1C[C@H](Nc2ncnc3[nH]cc(CC4CC4)c23)CC[C@@H]1C(C)C` (single isomer, unassigned) [Example 43], for which the IC50 on ITK was above 100 nM; on JAK3, above 100 nM; in experiment [1] (Homo sapiens, Jurkat) it was above 1000 nM; in experiment [2] (Homo sapiens, PBMC), above 1000 nM.
